# ChEMBL document CHEMBL5244219, “Recent developments of quinolone-based derivatives and their activities against Escherichia coli” (Eur J Med Chem, 2018)
# Tests used:
# Escherichia coli [1] = test: Antibacterial activity against Escherichia coli ATCC 25922 assessed as bacterial growth inhibition; format: functional
# Escherichia coli [2] = test: Antibacterial activity against drug-sensitive Escherichia coli assessed as bacterial growth inhibition; format: functional
# Escherichia coli [3] = test: Antibacterial activity against Escherichia coli DC2 assessed as bacterial growth inhibition; format: functional
# Escherichia coli [4] = test: Antibacterial activity against Escherichia coli DC0 assessed as bacterial growth inhibition; format: functional
# Escherichia coli [5] = test: Antibacterial activity against Escherichia coli ES142 assessed as bacterial growth inhibition; format: functional
# DNA gyrase = DNA gyrase (Escherichia coli, UniProt P0AES4+P0AES6); test: Inhibition of Escherichia coli DNA gyrase; format: protein-complex assay
# [6] = Half life in marmoset at 3 mg/kg, iv; format: ADME, organism-based; conditions: callitrichinae sp., in vivo
# [7] = AUC in marmoset at 3 mg/kg, iv; format: ADME, organism-based; set-up: dose 3 mg/kg, route iv; conditions: callitrichinae sp., in vivo
# Escherichia coli [8] = test: Antibacterial activity against Escherichia coli DC2 assessed as bacterial growth inhibition by agar dilution method; format: functional
# Escherichia coli [9] = test: Antibacterial activity against Escherichia coli DC0 assessed as bacterial growth inhibition by agar dilution method; format: functional
# Escherichia coli [10] = test: Antibacterial activity against clinical isolate Escherichia coli assessed as bacterial growth inhibition incubated for 24 hrs by agar dilution method; format: functional
# Escherichia coli [11] = test: Antibacterial activity against Escherichia coli ATCC 25922 infected in iv dosed rat assessed as log reduction in bacterial count in lung homogenate at 5 mg/kg; format: functional
# Escherichia coli [12] = test: Antibacterial activity against Escherichia coli ATCC 25922 infected in iv dosed mouse assessed as bacterial growth inhibition; format: functional
# Escherichia coli [13] = test: Antibacterial activity against Escherichia coli KC-14 infected in po dosed mouse assessed as bacterial growth inhibition; format: functional
# [14] = Acute toxicity in iv dosed mouse assessed as lethal dose; format: organism-based; conditions: in vivo
# Escherichia coli [15] = test: Antibacterial activity against nalidixic acid resistant Escherichia coli assessed as bacterial growth inhibition; format: functional
# Escherichia coli [16] = test: Antibacterial activity against Escherichia coli NIHJ JC-2 assessed as bacterial growth inhibition; format: functional
# Escherichia coli [17] = test: Antibacterial activity against Escherichia coli TolC assessed as bacterial growth inhibition; format: functional
# Escherichia coli [18] = test: Antibacterial activity against Escherichia coli NCDC 134 assessed as bacterial growth inhibition; format: functional
# Escherichia coli [19] = test: Antibacterial activity against Escherichia coli assessed as bacterial growth inhibition by microdilution method; format: functional
# Escherichia coli [20] = test: In vivo antibacterial activity against Escherichia coli H560 infected in po dosed CD-1 mouse assessed as bacterial growth inhibition; format: functional; conditions: read-out: PD50
# Escherichia coli [21] = test: Antibacterial activity against Escherichia coli H560 assessed as bacterial growth inhibition; format: functional
# Escherichia coli [22] = test: Antibacterial activity against Escherichia coli 2010-29 assessed as bacterial growth inhibition measured after 24 hrs by agar dilution method; format: functional
# Escherichia coli [23] = test: In vivo antibacterial activity against Escherichia coli H560 infected in sc dosed CD-1 mouse assessed as bacterial growth inhibition; format: functional; conditions: read-out: PD50
# Escherichia coli [24] = test: Antibacterial activity against Escherichia coli assessed as bacterial growth inhibition; format: functional
# Escherichia coli [25] = test: Antibacterial activity against Escherichia coli NCTC 10419 assessed as bacterial growth inhibition; format: functional
# Escherichia coli [26] = test: In vivo antibacterial activity against Escherichia coli NCTC 10419 infected in po dosed CF-mouse assessed as bacterial growth inhibition; format: functional, organism-based
# Escherichia coli [27] = test: Antibacterial activity against Escherichia coli assessed as bacterial growth inhibition incubated for 18 hrs by twofold serial dilution assay; format: functional
# Escherichia coli [28] = test: Antibacterial activity against Escherichia coli 2010-05 assessed as bacterial growth inhibition measured after 24 hrs by agar dilution method; format: functional
# Escherichia coli [29] = test: Antibacterial activity against Escherichia coli assessed as bacterial growth inhibition by agar dilution method; format: functional
# Escherichia coli [30] = test: Antibacterial activity against Escherichia coli assessed as bacterial growth inhibition measured after 18 hrs by two-fold serial dilution method; format: functional
# Escherichia coli [31] = test: Antibacterial activity against Escherichia coli assessed as zone of inhibition at 5 ug per disc; format: functional; conditions: read-out: DIZ
# Escherichia coli [32] = test: Antibacterial activity against Escherichia coli K-12 C600 assessed as bacterial growth inhibition; format: functional
# Escherichia coli [33] = test: Antibacterial activity against Escherichia coli KC-14 assessed as bacterial growth inhibition; format: functional
# Escherichia coli [34] = test: Antibacterial activity against Escherichia coli JM109 assessed as bacterial growth inhibition; format: functional
# Escherichia coli [35] = test: Potency index, ratio of norfloxacin MIC to compound IC50 for antibacterial activity against Escherichia coli JM109; format: functional
# Escherichia coli [36] = test: Potency index, ratio of norfloxacin MIC to compound IC50 for antibacterial activity against Escherichia coli DH52; format: functional
# Escherichia coli [37] = test: Antibacterial activity against Escherichia coli DH52 assessed as bacterial growth inhibition; format: functional
# Escherichia coli [38] = test: Potency index, ratio of ciprofloxacin MIC to compound IC50 for antibacterial activity against Escherichia coli DH52; format: functional; conditions: time 24 hrs
# Escherichia coli [39] = test: Potency index, ratio of ciprofloxacin MIC to compound IC50 for antibacterial activity against Escherichia coli JM109; format: functional
# Escherichia coli [40] = test: Potency index, ratio of ceftazidime MIC to compound IC50 for antibacterial activity against Escherichia coli DC0; format: functional
# Escherichia coli [41] = test: Potency index, ratio of ceftazidime MIC to compound IC50 for antibacterial activity against Escherichia coli DC2; format: functional
# [42] = Escherichia coli, KC-14, po, read-out: ED50
structure (smiles),measurement,setting,value
C[C@@H](O)[C@H]1C(=O)N2C(C(=O)O)=C(COC(=O)N3CCN(c4cc5c(cc4F)c(=O)c(C(=O)O)cn5C4CC4)CC3)S[C@H]12,MIC,Escherichia coli [1],≤ 0.06 µg/mL
O=C(O)c1cn(C2CC2)c2cc(N3CCN([C@@H]4O[C@H](CO)[C@H](O)[C@H](O)[C@H]4O)CC3)c(F)cc2c1=O,MIC,Escherichia coli [2],≤ 0.03 µg/mL
C[C@H](N)[C@@H]1CCN(c2cc3c4c(c2)c(=O)c(C(=O)O)cn4[C@@H](C)CO3)C1,MIC,Escherichia coli [3],0.063 µg/mL
same,MIC,Escherichia coli [4],0.063 µg/mL
same,MIC,Escherichia coli [5],0.063 µg/mL
same,IC50,DNA gyrase,17.9 µM
CC(C)(O/N=C(\C(=O)N[C@@H]1C(=O)N2C(C(=O)[O-])=C(C[n+]3ccccc3)CS[C@H]12)c1csc(N)n1)C(=O)O [CEFTAZIDIME],half-life,[6],42 min
same,AUC,[7],14000 ng·h/mL
same,MIC,Escherichia coli [8],0.06 µg/mL
same,MIC,Escherichia coli [9],0.06 µg/mL
O=C(O)c1cn(C2CC2)c2cc(N3CCN([C@@H]4O[C@H](CO)[C@@H](O)[C@H](O)[C@H]4O)CC3)c(F)cc2c1=O,MIC,Escherichia coli [2],≤ 0.03 µg/mL
CO/N=C1\CN(c2nc3c(cc2F)c(=O)c(C(=O)O)cn3C2CC2)CC1CN (stereo not drawn) [GEMIFLOXACIN],MIC90,Escherichia coli [10],32 µg/mL
CN1CCN(c2cc3c(cc2F)c(=O)c(C(=O)O)cn3-c2ccc(OP(=O)(O)O)cc2)CC1,log(activity),Escherichia coli [11],2
same,ED50,Escherichia coli [12],0.74 mg/kg
CN1CCN(c2c(F)cc3c(=O)c(C(=O)O)c4scc5n4c3c2OC5)CC1,ED50,Escherichia coli [13]; [42],1.01 mg/kg
same,LD50,[14],237 mg/kg
same,MIC,Escherichia coli [15],0.2 µg/mL
O=C(O)c1cn(C2CC2)c2cc(N3CCNCC3)c(F)cc2c1=O [CIPROFLOXACIN],MIC,Escherichia coli [16],0.0063 µg/mL
same,MIC,Escherichia coli [17],8.21 µg/mL
same,MIC,Escherichia coli [18],40 µg/mL
same,MIC,Escherichia coli [19],≤ 0.03 µg/mL
same,ED50,Escherichia coli [20],1 mg/kg
same,MIC,Escherichia coli [21],≤ 0.003 µg/mL
same,MIC,Escherichia coli [22],64 µg/mL
same,ED50,Escherichia coli [23],0.3 mg/kg
same,MIC,Escherichia coli [24],0.025 µg/mL
same,ED50,Escherichia coli [13]; [42],0.45 mg/kg
same,MIC,Escherichia coli [25],0.0011 µg/mL
same,EC50,Escherichia coli [26],1.25 mg/kg
same,MIC,Escherichia coli [27],≤ 0.015 µg/mL
same,MIC,Escherichia coli [28],64 µg/mL
same,MIC90,Escherichia coli [29],4 µg/mL
O=C(O)c1cn(-c2ccc(F)cc2F)c2nc(N3CCCC3)c(F)cc2c1=O,ED50,Escherichia coli [20],0.5 mg/kg
same,MIC,Escherichia coli [21],0.025 µg/mL
same,ED50,Escherichia coli [23],0.2 mg/kg
CC(C)(CF)n1cc(C(=O)O)c(=O)c2cc(F)c(N3CC[C@H](N)C3)cc21,MIC,Escherichia coli [30],0.002 µg/mL
COc1cc(Cc2cnc(/N=C3\C(=O)N(CN4CCN(c5cc6c(cc5F)c(=O)c(C(=O)O)cn6C5CC5)CC4)c4ccc(C)cc43)nc2N)cc(OC)c1OC,MIC,Escherichia coli [25],0.0002 µg/mL
same,EC50,Escherichia coli [26],0.62 mg/kg
C[C@H]1COc2c(N3CCN(C)CC3)c(F)cc3c(=O)c(C(=O)O)cn1c23.C[C@H]1COc2c(N3CCN(C)CC3)c(F)cc3c(=O)c(C(=O)O)cn1c23.O [LEVOFLOXACIN],MIC,Escherichia coli [22],32 µg/mL
same,MIC,Escherichia coli [28],32 µg/mL
same,MIC90,Escherichia coli [10],32 µg/mL
same,MIC90,Escherichia coli [29],4 µg/mL
CC1COc2c(N3CCN(C)CC3)c(F)cc3c(=O)c(C(=O)O)cn1c23 (stereo not drawn) [OFLOXACIN],zone of inhibition at 5 µg/disc,Escherichia coli [31],22 mm
same,MIC,Escherichia coli [32],0.2 µg/mL
same,ED50,Escherichia coli [13],0.55 mg/kg
same,ED50,Escherichia coli [13]; [42],1.1 mg/kg
same,MIC,Escherichia coli [33],0.1 µg/mL
Cc1c(N2CCN(c3nc4ccccc4[nH]3)CC2)c(F)cc2c(=O)c(C(=O)O)cn(C3CC3)c12,MIC,Escherichia coli [34],0.125 µg/mL
same,Ratio,Escherichia coli [35],2
same,Ratio,Escherichia coli [36],2
same,MIC,Escherichia coli [37],0.125 µg/mL
same,Ratio,Escherichia coli [38],2
same,Ratio,Escherichia coli [39],2
C[C@@H](O)[C@H]1C(=O)N2C(C(=O)O)=C(COC(=O)N[C@H]3CCN(c4c(F)cc5c(=O)c(C(=O)O)cn(C6CC6)c5c4F)C3)S[C@H]12,MIC,Escherichia coli [1],≤ 0.06 µg/mL
C[C@H]1COc2cc(N3CC[C@@H](C(C)(C)N)C3)cc3c(=O)c(C(=O)O)cn1c23,MIC,Escherichia coli [3],0.063 µg/mL
same,MIC,Escherichia coli [4],0.063 µg/mL
same,MIC,Escherichia coli [5],0.063 µg/mL
same,IC50,DNA gyrase,8.62 µM
CCO/N=C(\C(=O)N[C@@H]1C(=O)N2C(C(=O)O)=C(CNC(=O)c3cn(CC)c4cc(O)c(O)cc4c3=O)CSC12)c1csc(N)n1 (stereo in doubt),MIC,Escherichia coli [8],0.008 µg/mL
same,MIC,Escherichia coli [9],0.008 µg/mL
same,Ratio,Escherichia coli [40],8
same,Ratio,Escherichia coli [41],8
Cc1c(N2CCN(Cc3nc4ccccc4n3Cc3ccc(Cl)cc3Cl)CC2)c(F)cc2c(=O)c(C(=O)O)cn(C3CC3)c12,MIC,Escherichia coli [34],0.125 µg/mL
same,Ratio,Escherichia coli [35],2
same,Ratio,Escherichia coli [36],2
same,MIC,Escherichia coli [37],0.125 µg/mL
same,Ratio,Escherichia coli [38],2
same,Ratio,Escherichia coli [39],2
